This passage reports IC50 results from patent US10329282B2, “Rho-associated protein kinase inhibitor, pharmaceutical composition comprising the same, as well as preparation method and use thereof” (Beijing Tide Pharmaceutical Co., Ltd., priority 2017, dated 2019).

This test concerns the target ROCK2 (Homo sapiens (Human), UniProt O75116). Briefly: ROCK2 kinase IC50 assay (CISBIO HTRF KinEASE-STK S2 kit). To be noted: ROCK2 from Carna Biosciences, 2 h incubation at room temperature. The test is classed as biochemical. How it is done:
The kinase IC50 was determined by a commercialized CISBIO kinase detection kit, HTRF KinEASE-STK S2 kit (62ST2PEC). ROCK2 (01-119) employed in the reaction was purchased from Carna Biosciences.
Before the assay, the following working solutions as needed were formulated with corresponding reagents according to the instruction of the kinase detection kit: 1×kinase buffer, 5×STK-52 substrate working solution (1.5 μM) and 5×ATP working solution (1.5 μM), 5×ROCK2 kinase working solution, 4×Streptavidin-XL665 working solution, and 4×STK-Ab-Cryptate 2 detection solution. Then the assay was performed according to the following procedure.
A solution of a compound at a concentration of 10000 nM was prepared with the 1×kinase buffer containing 2.5% DMSO. Gradient dilution of the solution of the compound was performed with the kinase buffer containing DMSO, so as to obtain solutions of a test compound at 9 different concentrations. In addition to wells of test compounds, a positive well (containing all the reagents except the compound) and a negative well (containing all the reagents except the test compound and kinase) were set. Except for the control wells (positive and negative wells), a solution of a test compound (4 μL) was added to each of the reaction wells, and a solution of 2.5% DMSO was added to the control wells. Then the substrate (2 μM, i.e., 2 μL 5×STK-S2 substrate working solution) was added to each of the reaction wells. The 5×ROCK2 kinase working solution (2 μL, containing 1.4 ng ROCK2 kinase) was added to each of the reaction wells except for the negative well, the volume of which was made up with the 1×kinase buffer (2 μL). The 5×ATP working solution (2 μL) was added to each of the reaction wells, and the mixtures were incubated at room temperature for 2 hours. After the kinase reaction was complete, the 4×Streptavidin-XL665 working solution was added to each of the reaction wells, the solutions were mixed, followed by immediate addition of the 4×STK-Ab-Cryptate 2 detection solution (5 μL), and the mixtures were incubated at room temperature for 1 hour. The fluorescence signal was read on ENVISION (Perkinelmer) (excitation wavelength: 320 nm, and emission wavelength: 665 nm and 615 nm). The inhibitory rate in each well was calculated based on the fluorescence intensity value: ER (Emission Ratio)=(fluorescence intensity at 665 nm/fluorescence intensity at 615 nm); inhibitory rate=(ERpositive−ERtest compound) (ERpositive−ERnegative)*100%. Curves were plotted and fitted to obtain the median inhibitory concentration (IC50) of each teat compound with the PRISM 5.0 software.
On the technique in general: In TR-FRET formats the signal depends on donor and acceptor labels being close together.

ROCK2, sequence (O75116 1-553): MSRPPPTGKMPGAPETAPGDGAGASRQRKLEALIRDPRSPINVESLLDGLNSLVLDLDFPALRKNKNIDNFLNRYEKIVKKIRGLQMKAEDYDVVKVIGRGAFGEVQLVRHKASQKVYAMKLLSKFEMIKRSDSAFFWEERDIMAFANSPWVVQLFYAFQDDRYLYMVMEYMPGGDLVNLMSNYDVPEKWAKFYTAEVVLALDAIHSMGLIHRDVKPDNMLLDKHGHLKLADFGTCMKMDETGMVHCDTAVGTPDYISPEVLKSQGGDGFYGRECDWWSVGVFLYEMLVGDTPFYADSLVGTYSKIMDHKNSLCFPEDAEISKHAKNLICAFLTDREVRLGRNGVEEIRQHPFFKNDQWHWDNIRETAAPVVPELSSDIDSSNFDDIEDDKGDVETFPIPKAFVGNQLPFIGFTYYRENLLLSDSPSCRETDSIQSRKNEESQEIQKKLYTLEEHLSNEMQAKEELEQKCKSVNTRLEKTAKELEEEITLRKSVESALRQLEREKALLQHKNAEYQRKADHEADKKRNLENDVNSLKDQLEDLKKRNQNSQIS

With `O=C(NC1CCOC1)c1cc2ccc(-c3nc(Nc4ccc(-c5cn[nH]c5)cc4)c4sccc4n3)cc2[nH]1` (stereo not drawn) [TDI01423, 6-(4-((4-(1H-pyrazol-4-yl)phenyl)amino)thieno[3,2-d]pyrimidin-2-yl)-N-(tetrahydrofuran-3-yl)-1H-indole-2-carboxamide], the concentration for half-maximal inhibition (IC50) (in general, the point on the concentration scale where inhibition reaches its midpoint) stood at 0.264 µM. Molecule `CC(C)NC(=O)c1ccc2cc(-c3nccc(Nc4ccc5[nH]ncc5c4)n3)sc2c1` [TDI01106, 2-(4-((1H-indazol-5-yl)amino)pyrimidin-2-yl)-N-isopropylbenzo[b]thiophene-6-carboxamide] returned a 50% inhibitory concentration (IC50) of 0.112 µM. `O=C(NC1CC1)c1cc2ccc(-c3nccc(Nc4ccc5[nH]ncc5c4)n3)cc2s1` [TDI01111, 6-(4-((1H-indazol-5-yl)amino)pyrimidin-2-yl)-N-cyclopropylbenzo[b]thiophene-2-carboxamide] returned a half-inhibitory concentration (IC50) of 0.1 µM.

With `O=C(Nc1cnoc1)c1cc2ccc(-c3nccc(Nc4ccc5[nH]ncc5c4)n3)cc2[nH]1` [TDI01156, 6-(4-((1H-indazol-5-yl)amino)pyrimidin-2-yl)-N-(isoxazol-4-yl)-1H-indole-2-carboxamide], the IC50 was found to be 0.025 µM. In the case of `O=C(NC1CCN(c2ccncc2Cl)CC1)c1cc2ccc(-c3nccc(Nc4ccc(-c5cn[nH]c5)cc4)n3)cc2[nH]1` [TDI01847B, 6-(4-((4-(1H-pyrazol-4-yl)phenyl)amino)pyrimidin-2-yl)-N-(1-(3-chloropyridin-4-yl)piperidin-4-yl)-1H-indole-2-carboxamide] it was 0.026 µM; in that of `C[C@@H](CN)NC(=O)c1cc2ccc(-c3nccc(Nc4ccc(-c5cn[nH]c5)cc4)n3)cc2[nH]1` [TDI01856, (S)-6-(4-((4-(1H-pyrazol-4-yl)phenyl)amino)pyrimidin-2-yl)-N-(1-aminopropan-2-yl)-1H-indole-2-carboxamide], 0.141 µM. In the case of `Cn1cc(NC(=O)c2cc3ccc(-c4nccc(Nc5ccc6[nH]ncc6c5)n4)cc3[nH]2)cn1` [TDI01134, 6-(4-((1H-indazol-5-yl)amino)pyrimidin-2-yl)-N-(1-methyl-1H-pyrazol-4-yl)-1H-indole-2-carboxamide] it was 0.062 µM. Molecule `CC(C)NC(=O)c1cc2ccc(-c3nc(Nc4ccc5[nH]ncc5c4)c4cc[nH]c4n3)cc2[nH]1` [TDI01143, 6-(4-((1H-indazol-5-yl)amino)-7H-pyrrolo[2,3-d]pyrimidin-2-yl)-N-isopropyl-1H-indole-2-carboxamide] registered an IC50 of 0.072 µM.

Regarding `O=C(Nc1cccnc1)c1cc2ccc(-c3nccc(Nc4ccc5[nH]ncc5c4)n3)cc2[nH]1` [TDI01171, 6-(4-((1H-indazol-5-yl)amino)pyrimidin-2-yl)-N-(pyridin-3-yl)-1H-indole-2-carboxamide], the IC50 was 0.063 µM. Consider `CN1CCC(N2CCCC(NC(=O)c3cc4ccc(-c5nccc(Nc6ccc7[nH]ncc7c6)n5)cc4[nH]3)C2)CC1` (stereo not drawn) [TDI01318, 6-(4-((1H-indazol-5-yl)amino)pyrimidin-2-yl)-N-(1′-methyl-[1,4′-bipiperidin]-3-yl)-1H-indole-2-carboxamide], for which the half-inhibitory concentration (IC50) is 0.018 µM. As for `N#CC1CN(C(=O)c2cc3ccc(-c4nccc(Nc5ccc(-c6cn[nH]c6)cc5)n4)cc3[nH]2)C1` [TDI01398, 1-(6-(4-((4-(1H-pyrazol-4-yl)phenyl)amino)pyrimidin-2-yl)-1H-indole-2-carbonyl)azetidine-3-carbonitrile], the IC50 was found to be 0.016 µM. Molecule `CC(C)NC(=O)c1cc2ccc(-c3nc(Nc4ccc5[nH]ncc5c4)cc(OCCN(C)C)n3)cc2s1` [TDI01121, 6-(4-((1H-indazol-5-yl)amino)-6-(2-(dimethylamino)ethoxy)pyrimidin-2-yl)-N-isopropylbenzo[b]thiophene-2-carboxamide] showed an IC50 of 0.47 µM. In the case of `CN(CC(F)(F)F)C(=O)c1cc2ccc(-c3nccc(Nc4ccc(-c5cn[nH]c5)cc4)n3)cc2[nH]1` [TDI01355, 6-(4-((4-(1H-pyrazol-4-yl)phenyl)amino)pyrimidin-2-yl)-N-methyl-N-(2,2,2-trifluoroethyl)-1H-indole-2-carboxamide] it was 0.054 µM; in that of `CN(C)C(=O)N1Cc2ccc(-c3nccc(Nc4ccc(-c5cn[nH]c5)cc4)n3)cc2C1` [TDI01366, 5-(4-((4-(1H-pyrazol-4-yl)phenyl)amino)pyrimidin-2-yl)-N,N-dimethylisoindoline-2-carboxamide], 0.26 µM; in that of `O=C(NC1CCOCC1)c1cc2ccc(-c3nccc(Nc4ccc(-c5cn[nH]c5)cc4)n3)cc2[nH]1` [TDI01338, 6-(4-((4-(1H-pyrazol-4-yl)phenyl)amino)pyrimidin-2-yl)-N-(tetrahydro-2H-pyran-4-yl)-1H-indole-2-carboxamide], 0.115 µM. The result for `CC(C)NC(=O)c1cc2ccc(-c3nc(Nc4ccc5[nH]ncc5c4)c4ccn(CCN(C)C)c4n3)cc2s1` [TDI01122, 6-(4-((1H-indazol-5-yl)amino)-7-(2-(dimethylamino)ethyl)-7H-pyrrolo[2,3-d]pyrimidin-2-yl)-N-isopropylbenzo[b]thiophene-2-carboxamide] reads 0.219 µM; that for `O=C(Nc1ccccn1)c1cc2ccc(-c3nccc(Nc4ccc5[nH]ncc5c4)n3)cc2[nH]1` [TDI01311, 6-(4-((1H-indazol-5-yl)amino)pyrimidin-2-yl)-N-(pyridin-2-yl)-1H-indole-2-carboxamide], 0.465 µM; that for `CC(C)NC(=O)c1cc2ccc(-c3nc(Nc4ccc(-c5cn[nH]c5)cc4)c4sccc4n3)cc2[nH]1` [TDI01370, 6-(4-((4-(1H-pyrazol-4-yl)phenyl)amino)thieno[3,2-d]pyrimidin-2-yl)-N-isopropyl-1H-indole-2-carboxamide], 0.109 µM. On to `O=C(c1cc2ccc(-c3nccc(Nc4ccc(-c5cn[nH]c5)cc4)n3)cc2[nH]1)N1CCC1` [TDI01330, (6-(4-((4-(1H-pyrazol-4-yl)phenyl)amino)pyrimidin-2-yl)-1H-indol-2-yl)(azetidin-1-yl)methanone], for which the IC50 was 0.474 µM. Consider `O=C(NC1CC1)c1cc2ccc(-c3nccc(Nc4ccc5[nH]ncc5c4)n3)cc2[nH]1` [TDI01151, 6-(4-((1H-indazol-5-yl)amino)pyrimidin-2-yl)-N-cyclopropyl-1H-indole-2-carboxamide], for which the IC50 turned out to be 0.045 µM. The result for `CC(C)NC(=O)c1cc2ccc(-c3nc(Nc4ccc5[nH]ncc5c4)c4ccsc4n3)cc2[nH]1` [TDI01142, 6-(4-((1H-indazol-5-yl)amino)thieno[2,3-d]pyrimidin-2-yl)-N-isopropyl-1H-indole-2-carboxamide] reads 0.225 µM; that for `CC(C)NC(=O)c1cc2ccc(-c3nc(Nc4ccc5[nH]ncc5c4)c4sccc4n3)cc2[nH]1` [TDI01141, 6-(4-((1H-indazol-5-yl)amino)thieno[3,2-d]pyrimidin-2-yl)-N-isopropyl-1H-indole-2-carboxamide], 0.073 µM; that for `CC(C)NC(=O)c1cc2ccc(-c3nccc(Nc4ccc5[nH]ncc5c4)n3)cc2[nH]1` [TDI01108, 6-(4-((1H-indazol-5-yl)amino)pyrimidin-2-yl)-N-isopropyl-1H-indole-2-carboxamide], 0.022 µM.

Turning to `CN1CCN(C(=O)c2cc3ccc(-c4nccc(Nc5ccc(-c6cn[nH]c6)cc5)n4)cc3[nH]2)CC1` [TDI01343, (6-(4-((4-(1H-pyrazol-4-yl)phenyl)amino)pyrimidin-2-yl)-1H-indol-2-yl)(4-methylpiperazin-1-yl)methanone], the IC50 was 0.436 µM.
